Columns and labels:
Lyp = molecular target: T1, Lyp (Homo sapiens, UniProt Q9Y2R2); assay: PTP activity assay with pNPP as substrate: Lyp; assay type: biochemical; conditions: pNPP as substrate at Km, pH 7.0, 25° C., I = 0.15 M
T1 sequence (Q9Y2R2 1-807): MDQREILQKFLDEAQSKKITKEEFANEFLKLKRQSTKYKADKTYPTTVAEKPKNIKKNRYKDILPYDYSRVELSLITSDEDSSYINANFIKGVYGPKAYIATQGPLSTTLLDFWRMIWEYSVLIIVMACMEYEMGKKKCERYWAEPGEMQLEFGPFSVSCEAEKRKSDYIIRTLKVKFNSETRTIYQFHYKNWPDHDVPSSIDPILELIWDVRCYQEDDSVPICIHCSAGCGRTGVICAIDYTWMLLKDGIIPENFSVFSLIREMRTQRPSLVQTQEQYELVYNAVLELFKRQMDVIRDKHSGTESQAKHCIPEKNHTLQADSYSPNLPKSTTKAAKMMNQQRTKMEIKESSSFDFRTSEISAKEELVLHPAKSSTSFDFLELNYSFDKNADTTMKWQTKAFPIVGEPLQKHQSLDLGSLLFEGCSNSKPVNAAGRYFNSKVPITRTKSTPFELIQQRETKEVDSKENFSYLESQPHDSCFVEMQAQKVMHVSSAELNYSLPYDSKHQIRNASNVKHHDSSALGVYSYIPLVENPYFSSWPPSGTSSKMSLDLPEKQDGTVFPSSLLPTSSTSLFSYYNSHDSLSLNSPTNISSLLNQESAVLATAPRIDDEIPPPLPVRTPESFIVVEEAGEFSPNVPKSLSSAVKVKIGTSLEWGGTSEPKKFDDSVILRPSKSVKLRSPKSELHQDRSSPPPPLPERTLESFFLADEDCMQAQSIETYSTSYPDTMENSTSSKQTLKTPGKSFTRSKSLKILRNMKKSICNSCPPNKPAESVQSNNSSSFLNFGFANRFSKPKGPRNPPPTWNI
Experimental: (§1) The PTP activity was assayed using pNPP as a substrate at 25° C. in 50 mM 3,3-dimethylglutarate buffer, pH 7.0, containing 1 mM EDTA with an ionic strength of 0.15 M adjusted by NaCl. TTM, TTN and the engineered analogs were analyzed for inhibition of a panel of PTPs at 10 μM compound concentration. For each enzyme screened, test compounds were diluted to 20 μM in 100 μL and combined with 50 μL pNPP at a concentration of 4×Km. The reaction was initiated by the addition of 50 μL of 4× concentrated enzyme and pNPP was allowed to convert to the product p-nitrophenol. The reaction was quenched by the addition of 50 μL of 5N NaOH. Nonenzymatic hydrolysis of pNPP was corrected by measuring the control without the addition of enzyme. Production of p-nitrophenol was monitored by a Spectra MAX385 microplate spectrophotometer (Molecular Devices) at 405 nm using a molar extinction coefficient of 18,000 M^−1 cm^−1. IC50 values were calculated by fitting the absorbance at 405 nm versus inhibitor concentration to the following equation: AI/A0=IC50/(IC50+[I]) where AI is the absorbance at 405 nm of the sample in the presence of inhibitor; Ao is the absorbance at 405 nm in the absence of inhibitor; and [I] is the concentration of the inhibitor.

PTPα = PTPα (Homo sapiens, UniProt P18433); assay: PTP activity assay with pNPP as substrate: PTPα; assay type: biochemical; conditions: pNPP as substrate at Km, pH 7.0, 25° C., I = 0.15 M
PTPα, sequence (P18433 20-802): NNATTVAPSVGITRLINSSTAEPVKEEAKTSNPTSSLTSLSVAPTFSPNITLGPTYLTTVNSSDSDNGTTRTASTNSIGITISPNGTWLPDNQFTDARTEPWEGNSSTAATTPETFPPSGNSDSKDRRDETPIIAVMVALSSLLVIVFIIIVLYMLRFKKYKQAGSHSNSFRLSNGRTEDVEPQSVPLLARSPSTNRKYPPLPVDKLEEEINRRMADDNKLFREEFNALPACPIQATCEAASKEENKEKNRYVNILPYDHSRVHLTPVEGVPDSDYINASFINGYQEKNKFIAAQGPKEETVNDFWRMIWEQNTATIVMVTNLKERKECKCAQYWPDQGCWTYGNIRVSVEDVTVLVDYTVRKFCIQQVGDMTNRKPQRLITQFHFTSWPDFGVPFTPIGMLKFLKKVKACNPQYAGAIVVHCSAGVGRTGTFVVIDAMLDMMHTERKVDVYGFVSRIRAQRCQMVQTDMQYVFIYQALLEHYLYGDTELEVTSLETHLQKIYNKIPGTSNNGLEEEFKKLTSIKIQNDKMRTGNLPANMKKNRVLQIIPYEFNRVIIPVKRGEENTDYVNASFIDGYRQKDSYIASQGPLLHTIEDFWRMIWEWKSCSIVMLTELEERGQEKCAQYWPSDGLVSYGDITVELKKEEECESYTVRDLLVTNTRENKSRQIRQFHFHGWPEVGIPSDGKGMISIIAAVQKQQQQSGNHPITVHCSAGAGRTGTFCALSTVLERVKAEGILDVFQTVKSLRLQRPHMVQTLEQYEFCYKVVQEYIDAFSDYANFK
Experimental: as §1

[1] = system: TCR-mediated ERK1/2 activation in Jurkat T cells; assay: Anti-CD3 (TCR) induced ERK1/2 activation in Jurkat T cells, immunoblot; assay type: cell-based; conditions: 2 hours pretreatment, anti-CD3 stimulation
Experimental: Jurkat T cells were grown at 37° C. under an atmosphere of 5% CO2 in RPMI medium 1640 supplemented with 10% FBS. Cells were pretreated with different concentrations of TTN, TTN D-1, or TTM for 2 hours and stimulated with […] anti-CD3 antibody (OKT3; eBioscience) for 5 min and 30 min, respectively. Subsequently, cells were spinned down at 2000 rpm in 4° C., and cell pellets were lysed in 50 mM Tris-HCl (pH 7.5), 150 mM NaCl, 10% glycerol, 1% NP-40, 50 mM NaF, 10 mM pyrophosphate, 5 mM idoacetate, 1 mM sodium orthovanadate, and the protease inhibitor mixture. After 30 min lysing on ice, the cell lysates were centrifuged at 13,200 rpm for 15 min. Total cellular proteins were separated by SDS/PAGE and transferred electrophoretically to nitrocellulose membrane, which was immunoblotted by appropriate antibodies followed by incubation with HRP-conjugated secondary antibodies. Blots were developed using Pierce Pico ECL reagent (Thermo) according to the manufacturer's instructions.
TTN induces immunosuppression by suppression of TCR-mediated tyrosine phosphorylation and ERK1/2 activity in T cells (Shim et al., 2002). However, the mechanism of action for TTN's ability to block TCR signaling remains undefined. […]

[2] = system: hematopoietic progenitors (MIEG3, wild-type SHP2, SHP2/E76K); assay: Methylcellulose-based colony assay of transduced bone marrow LDMNCs (CFU-M / CFU-GM); assay type: cell-based; conditions: 2 μM TTN, GM-CSF 1 ng/mL, 7 days
Experimental: Transduced, EGFP+ cells were subjected to ^3H-thymidine incorporation assays, as previously described (Munugalavadla et al., 2007), or plated at a concentration of 8000 cells/mL in 0.9% methylcellulose-based media containing IMDM, 2 mM glutamine, 1% penicillin/streptomycin, 80 μM β-mercaptoethanol, 30% FBS, and GM-CSF 1 ng/mL or with saturating concentrations of growth factors including IL-3 200 U/mL, erythropoietin 4 U/mL, and stem cell factor (SCF) 100 ng/mL. All growth factors were from Peprotech. Cultures were incubated in a humidified incubator at 37° C. in 5% CO2 for 7 days and were scored for total colonies and for morphology to determine colony forming unit (CFU)-granulocyte-macrophage (GM) or CFU-monocyte (M).
For biochemical studies, macrophage progenitor cells expressing empty vector (MIEG3), wild-type SHP2, or SHP2/E76K were serum- and growth factor-deprived for 24 hours. Cells were pre-treated with DMSO or 2 μM TTN for 2 hours, and then cultures either remained unstimulated or were stimulated with GM-CSF at 50 ng/mL for 60 minutes. […] To provide further evidence that SHP2 is a molecular target of TTN, the inventors determined the X-ray crystal structure of SHP2 in complex with TTN D-1, as crystallization attempts for the SHP2-TTN complex were unsuccessful. […]

PP2A = conditions: literature values; cited from earlier work
T cell proliferation = conditions: relative to cyclosporine A (CsA); cited from earlier work

With tautomycetin [TTN] the IC50 (Lyp) was 20 µM, the IC50 (PTPα) was greater than 50 µM and the “effect on TCR-mediated ERK1/2 activation” value [1] was “strongly reduced”. For the same substance, the “development of CFU-M” value [2] was “reduced in all cells types”, the IC50 (PP2A) was 0.062 µM and the “concentration for inhibition of T cell proliferation, lower than that for maximal inhibition by cyclosporine A” value (T cell proliferation) was 100 fold.

— patent publication US8637684B2, “Tautomycetin and tautomycetin analog biosynthesis” (Wisconsin Alumni Research Foundation, priority 2010, dated 2014)
